According to US20260115162A1, “COMPOSITION OR ASSOCIATION OF COMPOUNDS PREFERABLY FOR USE IN THE TREATMENT OF NERVOUS DISEASES IN PARTICULAR NEURODEGENERATIVE DISEASES, METHOD FOR THE PREPARATION OF SUCH COMPOSITION OR ASSOCIATION OF COMPOUNDS AND USES THEREOF” (PHARMACEUTICA SAN MARCO S.R.L., priority 2022, published 2026):
Values joined by “and” are separate entries in the source; they are usually repeats but may differ in a detail not shown here. Identical values can stand only once. Like-named read-outs stand apart in the source and are kept apart here.

Key:
[1] = Pharmacokinetics of βBA and AKBA via os in healthy volunteers, fasted and hyperlipidic meal (Sterk V et al. 2004); format: in vivo, humans
Excerpt: Indeed, βBA has a concentration in the blood: • at least 6 times higher than AKBA both in the fasting condition and with a hyperlipidic meal; • increased by 6 times after hyperlipidic meal so that the plasma/os ratio passes from 0.09 to 0.55.

[2] = Plasma levels of βBA and AKBA via os in patients (Gerbeth K et al. 2011); format: in vivo, humans
[3] = Blood concentration of βBA by oral-sublingual vs oral-gastro-intestinal route (FIG. 1); format: in vivo, humans
Procedure: FIG. 1. Blood Concentration of βBA Administered by Oral-Sublingual Route Vs. Oral-Gastro-Intestinal Route. • ? 43 a, 58 kg BW • βBA administered both via os and sublingual: 10 mg=172.4 ng/g. • Maximum blood concentration via sublingual route: 95 ng/ml. • Maximum blood concentration via os: 52 ng/ml. • Δos/plasma: 1.82. • Note • 1. […] The explanation is that βBA is an excellent vasodilator, probably through the release of NO nitric oxide [Wang M et al. 2015], synergistic with the other compounds of the composition or association object of the present invention. • 2. […] Note that with the present experiment, the Δos/plasma ratio of 1.82 was the same as that found by Sterk V et al. 2004 (Table 1).

[4] = tested on: serotonin (5-HT); experiment: Serotonin (5-HT) levels in mice treated with Aβ icv (FIG. 5a); format: in vivo
Procedure: (§1) The Aβ1-42, obtained from Tocris (Bristol, UK), was dissolved in sterile double-distilled pyrogenic-free water, as vehicle, to obtain a final concentration 4 μM [Colaianna M et al. 2010]. Mice were anesthetized with a solution (0.85 in ml/kg, i.p.), containing ketamine (Sigma Aldrich, Milan, Italy, 100 mg/10 ml), xylazine (Sigma Aldrich, Milan, Italy, 100 mg/10 ml) and acepromazine (prequillant, ATI Azienda Terapeutica Veterinaria Srl, 10 mg/10 ml) dissolved in saline solution. […] At the time of dissection, the correct needle track was assessed. […]
(§2) All behavioral experiments were conducted at 5 or 30 min after sublingual administrations of βBA or vehicle in mice treated with SHAM or AP. Based on the observed behavioral results, neurochemical and biochemical quantifications were performed 30 min after administration of βCP, FE, and βBA or vehicle in SHAM- or Aβ-treated mice. […]
(§3) 5-HT, noradrenaline (NA), and KYN levels were measured in the PFC and HIPP of mice by HPLC coupled with an electrochemical detector (Ultimate ECD, Thermo Scientific Dionex, Milan, Italy) as already reported [Francavilla M et al. 2012, Morgese M G et al. 2016]. […] GLU concentrations were determined by HPLC coupled with fluorescence detection (emission length 460 nm; excitation length 340 nm), as previously published [Francavilla M et al. 2012]. […]

[5] = tested on: noradrenaline (NA); experiment: Norepinephrine (NA) levels in mice treated with Aβ icv (FIG. 5b); format: in vivo; settings: PFC and HIPP
Procedure: as §1, §2, §3

[6] = healthy volunteers, via os, cited from earlier work
[7] = patients, via os; cited from earlier work
[8] = mice, via os, cited from earlier work

Compound: C[C@H]1[C@H](C)CC[C@]2(C)CC[C@]3(C)C(=CC[C@@H]4[C@@]5(C)CC[C@@H](O)[C@](C)(C(=O)O)[C@@H]5CC[C@]43C)[C@H]12 [βBA, β-boswellic acid]
- plasma/os ratio ([1]; after hyperlipidic meal): 0.55
- blood concentration of βBA relative to AKBA ([1]; both fasting and hyperlipidic meal): at least 6 times
- plasma/os ratio ([1]; fasting condition): 0.09
- Δos/plasma ([1]; healthy volunteers, fasted conditions): 10.9 fasted
- Δos/plasma ([1]; healthy volunteers, hyperlipidic fed conditions): 1.82 hyperlipidic
- increase in blood concentration / intestinal absorption induced by a hyperlipidic meal ([1]; healthy volunteers, hyperlipidic meal vs fasted): 6 times
- Δos/plasma [2]: 14.3
- Maximum blood concentration via sublingual route ([3]; one person, 58 kg BW, 10 mg=172.4 ng/g, sublingual): 95 ng/mL
- Maximum blood concentration via os ([3]; one person, 58 kg BW, 10 mg=172.4 ng/g, via os): 52 ng/mL
- Δos/plasma ([3]; sublingual administration): 1.81 and 1.82
- reduction in blood concentration with respect to the administered dose ([3]; via os): 67% and 70%
- Δos/plasma ([3]; via os administration): 2.97
- Serotonin (5-HT) levels [4]: progressively greater serotonergic activity
- Norepinephrine (NA) levels [5]: removes the reduction of NA induced by Aβ treatment and increases its expression in both PFC and HIPP compared with the control group
- concentration in the plasma ([6]; fasted conditions): 188.2 fasted ng/g o ng/ml
- concentration in the plasma ([6]; hyperlipidic fed conditions): 1,120 hyperlipidic ng/g o ng/ml
- concentration in the plasma [7]: 2,236 ng/g o ng/ml
- reduction of blood concentration compared to the dose introduced orally ([8]; intestinal mucosa to blood): up to 40 times
- concentration in the brain [8]: 1,066 ng/g o ng/ml
- concentration in the plasma [8]: 725 ng/g o ng/ml
